ChEMBL document CHEMBL5512665, “A CARM1 Inhibitor Potently Suppresses Breast Cancer Both In Vitro and In Vivo” (J Med Chem, 2024)
pEC50: −log10 of the molar value. Active and inactive are the calls of the source. The calls are words filed in the database; no cut-off is given here.

What was measured:
[1] = system: T47D; test: Antiproliferative activity against human T47D cells assessed as reduction in cell growth incubated for 7 days by celltiter 96 aqueous one solution cell proliferation assay; conditions: 168 h
[2] = system: MCF7; test: Antitumor activity against human MCF7 cells xenografted in BALB/C mouse assessed as inhibition of tumor growth at 25 mg/kg,ip administrated every other day for 29 days; type: functional, organism-based; conditions: time 29.0 day
[3] = Toxicity in BALB/C mouse xenografted with human MCF7 cells assessed as change in heart morphology at 50 mg/kg,ip administrated every other day for 29 days; type: organism-based; conditions: in vivo, 696 h, time 29 day
[4] = Toxicity in BALB/C mouse xenografted with human MCF7 cells assessed as change in liver morphology at 50 mg/kg,ip administrated every other day for 29 days; type: organism-based; conditions: in vivo, 696 h, time 29 day
[5] = Toxicity in BALB/C mouse xenografted with human MCF7 cells assessed as change in spleen morphology at 50 mg/kg,ip administrated every other day for 29 days; type: organism-based; conditions: in vivo, 696 h, time 29 day
[6] = system: MCF7; test: Antitumor activity against human MCF7 cells xenografted in BALB/C mouse assessed as downregulation of GREB1 gene expression at 50 mg/kg,ip administrated every other day for 29 days by RT-qPCR analysis; type: functional, organism-based; conditions: time 29.0 day
[7] = system: MCF7; test: Antitumor activity against human MCF7 cells xenografted in BALB/C mouse assessed as downregulation of FOXC1 gene expression at 50 mg/kg,ip administrated every other day for 29 days by RT-qPCR analysis; type: functional, organism-based; conditions: time 29.0 day
[8] = system: MCF7; test: Antitumor activity against human MCF7 cells xenografted in BALB/C mouse assessed as upregulation of IFIT1 gene expression at 50 mg/kg,ip administrated every other day for 29 days by RT-qPCR analysis; type: functional, organism-based; conditions: time 29.0 day
[9] = system: MCF7; test: Antitumor activity against human MCF7 cells xenografted in BALB/C mouse assessed as upregulation of DDX58 gene expression at 25 mg/kg,ip administrated every other day for 29 days by RT-qPCR analysis; type: functional, organism-based; conditions: time 29.0 day
[10] = system: MDA-MB-231; test: Antitumor activity against human MDA-MB-231 cells xenografted in BALB/C mouse assessed as reduction of tumor size at 25 mg/kg,ip administrated daily for 11 days; type: functional, organism-based; conditions: time 11.0 day
[11] = system: MDA-MB-231; test: Antitumor activity against human MDA-MB-231 cells xenografted in BALB/C mouse assessed as reduction of tumor weight at 25 mg/kg,ip administrated daily for 11 days; type: functional, organism-based; conditions: time 11.0 day
[12] = Toxicity in BALB/C mouse xenografted with human MDA-MB-231 cells assessed as change in body weight at 25 mg/kg,ip administrated daily for 11 days; type: organism-based; conditions: in vivo, 264 h, time 11 day
[13] = Toxicity in BALB/C mouse xenografted with human MDA-MB-231 cells assessed as change in liver morphology at 50 mg/kg,ip administrated daily for 11 days; type: organism-based; conditions: in vivo, 264 h, time 11 day
[14] = system: 4T1; test: Antitumor activity against mouse 4T1 cells implanted in BALB/C mouse assessed as inhibition of tumor weight at 25 mg/kg,ip administrated daily for 14 days; type: functional, organism-based; conditions: time 14.0 day
[15] = system: 4T1; test: Antitumor activity against mouse 4T1 cells implanted in BALB/C mouse assessed as inhibition of tumor size at 25 mg/kg,ip administrated daily for 14 days; type: functional, organism-based; conditions: time 14.0 day
[16] = Toxicity in BALB/C mouse implanted with mouse 4T1 cells assessed as change in body weight at 25 mg/kg,ip administrated daily for 14 days; type: organism-based; conditions: in vivo, 336 h, time 14 day
[17] = Toxicity in BALB/C mouse implanted with mouse 4T1 cells assessed as change in liver morphology at 50 mg/kg,ip administrated daily for 14 days; type: organism-based; conditions: in vivo, 336 h, time 14 day
[18] = Toxicity in BALB/C mouse implanted with mouse 4T1 cells assessed as change in kidney morphology at 25 mg/kg,ip administrated daily for 14 days; type: organism-based; conditions: in vivo, 336 h, time 14 day
[19] = system: 4T1; test: Antitumor activity against mouse 4T1 cells implanted in BALB/C mouse assessed as downregulation of FOXC1 gene expression at 50 mg/kg,ip administrated daily for 14 days by RT-qPCR analysis; type: functional, organism-based; conditions: time 14.0 day
[20] = system: 4T1; test: Antitumor activity against mouse 4T1 cells implanted in BALB/C mouse assessed as downregulation of PGR gene expression at 25 mg/kg,ip administrated daily for 14 days by RT-qPCR analysis; type: functional, organism-based; conditions: time 14.0 day
[21] = system: 4T1; test: Antitumor activity against mouse 4T1 cells implanted in BALB/C mouse assessed as upregulation of CCL5 gene expression at 50 mg/kg,ip administrated daily for 14 days by RT-qPCR analysis; type: functional, organism-based; conditions: time 14.0 day
[22] = system: 4T1; test: Antitumor activity against mouse 4T1 cells implanted in BALB/C mouse assessed as upregulation of DDX58 gene expression at 25 mg/kg,ip administrated daily for 14 days by RT-qPCR analysis; type: functional, organism-based; conditions: time 14.0 day
[23] = system: 4T1; test: Antitumor activity against mouse 4T1 cells implanted in BALB/C mouse assessed as upregulation of CD8A expression at 25 mg/kg,ip administrated daily for 14 days by immunohistochemical staining based analysis; type: functional, organism-based; conditions: time 14.0 day
[24] = system: MCF7; test: Synergistic antiproliferative activity against human MCF7 cells assessed as inhibition of colony formation at 2.5 uM incubated for 10 days in presence of fulvestrant by crystal violet staining based analysis; type: functional, cell-based; conditions: time 10.0 day
[25] = system: MCF7; test: Synergistic antiproliferative activity against human MCF7 cells assessed as downregulation of N-Myc gene expression at 2.5 uM incubated for 6 hrs in presence of fulvestrant by RT-qPCR analysis; type: functional, cell-based
[26] = system: MCF7; test: Synergistic antiproliferative activity against human MCF7 cells assessed as downregulation of TFF1 gene expression at 2.5 uM incubated for 6 hrs in presence of fulvestrant by RT-qPCR analysis; type: functional, cell-based
[27] = system: MCF7; test: Synergistic antitumor activity against human MCF7 cells xenografted in BALB/C mouse assessed as downregulation of C-Myc gene expression at 25 mg/kg,ip administrated every other day for 15 days in presence of 5 mg/kg tamoxifen oral administration by RT-qPCR analysis; type: functional, organism-based; conditions: time 15.0 day
[28] = system: MCF7; test: Potentiation of etoposide induced antiproliferative activity against human MCF7 cells assessed as upregulation of IFIT1 gene expression at 2.5 uM in presence of etoposide by RT-qPCR analysis; type: functional, cell-based
[29] = system: MCF7; test: Potentiation of etoposide induced antiproliferative activity against human MCF7 cells assessed as upregulation of DDX58 gene expression at 2.5 uM in presence of etoposide by RT-qPCR analysis; type: functional, cell-based
[30] = system: 4T1; test: Potentiation of etoposide induced antiproliferative activity against mouse 4T1 cells assessed as upregulation of CCL5 gene expression at 2.5 uM in presence of etoposide by RT-qPCR analysis; type: functional, cell-based
[31] = system: 4T1; test: Potentiation of etoposide induced antiproliferative activity against mouse 4T1 cells assessed as upregulation of DDX58 gene expression at 2.5 uM in presence of etoposide by RT-qPCR analysis; type: functional, cell-based
[32] = system: 4T1; test: Potentiation of etoposide induced antitumor activity against mouse 4T1 cells implanted in BALB/C mouse assessed as reduction in tumor weight at 25 mg/kg,ip administrated daily for 12 days in presence of 8 mg/kg etoposide administration; type: functional, organism-based; conditions: time 12.0 day
[33] = system: 4T1; test: Potentiation of etoposide induced antitumor activity against mouse 4T1 cells implanted in BALB/C mouse assessed as upregulation of DDX58 gene expression at 25 mg/kg,ip administrated daily for 12 days in presence of 8 mg/kg etoposide administration by RT-qPCR analysis; type: functional, organism-based; conditions: time 12.0 day

Cc1ccc(-c2nc(N3CCN(CCN(C)C)CC3)ncc2-c2ccoc2)cc1.Cl.Cl
pEC50 [1]: 5.32 | Activity [2]: Active | Activity [3]: Non-Toxic | Activity [4]: Non-Toxic | Activity [5]: Non-Toxic | Activity [6]: Active | Activity [7]: Active | Activity [8]: Active | Activity [9]: Active | Activity [10]: Active | Activity [11]: Active | Activity [12]: Non-Toxic | Activity [13]: Non-Toxic | Activity [14]: Active | Activity [15]: Active | Activity [16]: Non-Toxic | Activity [17]: Non-Toxic | Activity [18]: Non-Toxic | Activity [19]: Active | Activity [20]: Active | Activity [21]: Active | Activity [22]: Active | Activity [23]: Active | Activity [24]: Active | Activity [25]: Active | Activity [26]: Active | Activity [27]: Active | Activity [28]: Active | Activity [29]: Active | Activity [30]: Active | Activity [31]: Active | Activity [32]: Active | Activity [33]: Active
